In brackets after ≈: the same amount, converted by molar mass. Where two headings read alike, the source gives them in different places.
Key:
[1] = system: MRSA (ATCC43300); assay: Antibacterial MIC, broth growth inhibition OD600; type: cell-based, Staphylococcus aureus; conditions: MIC = ≥80% growth inhibition
[2] = system: E. coli (ATCC25922); assay: Antibacterial MIC, broth growth inhibition OD600; type: cell-based, Escherichia coli; conditions: for MIC: Escherichia coli, ATCC25922, read-out: MIC Ec
[3] = system: P. aeruginosa (ATCC27853); assay: Antibacterial MIC, broth growth inhibition OD600; type: cell-based, Pseudomonas aeruginosa
[4] = system: A. baumannii (ATCC19606); assay: Antibacterial MIC, broth growth inhibition OD600; type: cell-based, Acinetobacter baumannii
[5] = system: C. albicans (ATCC90028); assay: Antifungal MIC, growth inhibition; type: cell-based; conditions: Candida albicans
[6] = system: C. neoformans (ATCC 208821); assay: Antifungal MIC, growth inhibition; type: cell-based; conditions: Cryptococcus neoformans, ATCC208821, read-out: MIC Cn
[7] = system: E. coli, K. pneumoniae, P. aeruginosa, A. baumannii, MRSA, C. albicans, C. neoformans; assay: Antibacterial and antifungal MIC panel; type: cell-based
[8] = ATCC90028, read-out: MIC Ca, MIC = ≥80% growth inhibition

In the case of COc1cc2c(=O)c(C(=O)NCCNCCO)cn(Cc3ccccc3)c2cc1OCc1cccc(F)c1 [Compound 42, 1-Benzyl-7-[(3-fluorobenzyl)oxy]-N-{2-[(2-hydroxyethyl)amino]ethyl}-6-methoxy-4-oxo-1,4-dihydroquinoline-3-carboxamide], the “MIC MRSa” value [1] is reported as >32 µg/mL, the MIC [2] is reported as < 0.25 µg/mL and the MIC ([3]; Pseudomonas aeruginosa, ATCC27853, read-out: MIC Pa) is reported as < 0.25 µg/mL. For the same compound, the MIC ([4]; Acinetobacter baumannii, ATCC19606, read-out: MIC Ab) was < 0.25 µg/mL, the MIC ([5]; ATCC90028, read-out: MIC Ca) was > 32 µg/mL and the MIC [6] was < 0.25 µg/mL.

With CCn1cc(C(=O)NCCNCCO)c(=O)c2cc(OC)c(OCc3cc(F)cc(F)c3)cc21 [Compound 43, 7-[(3,5-Difluorobenzyl)oxy]-1-ethyl-N-{2-[(2-hydroxyethyl)amino]ethyl}-6-methoxy-4-oxo-1,4-dihydroquinoline-3-carboxamide] the “MIC MRSa” value [1] was >32 µg/mL, the MIC [2] was < 0.25 µg/mL and the MIC [5, 8] was > 32 µg/mL.

In the case of colistin [reference compound], the “MIC Ec” value ([2]; MIC = ≥80% growth inhibition) is reported as 0.12 µg/mL, the “MIC Pa” value ([3]; MIC = ≥80% growth inhibition) is reported as 0.25 µg/mL and the “MIC Ab” value ([4]; MIC = ≥80% growth inhibition) is reported as 0.25 µg/mL. The “MIC against Gram-negative bacteria (summary)” value [7] was 0.1 to 0.25 µg/mL.

OC(Cn1cncn1)(Cn1cncn1)c1ccc(F)cc1F [fluconazole, reference compound] showed an MIC [5, 8] of 0.125 µg/mL (≈ 0.408 µM).

Source: PMC10193574 (ACS Omega, 2023)
